Laboratory results: ChEMBL document CHEMBL5335781, “Discovery of quinazolin-4-one-based non-covalent inhibitors targeting the severe acute respiratory syndrome coronavirus 2 main protease (SARS-CoV-2 Mpro)” (Eur J Med Chem, 2023)
≈ marks a conversion by molar mass, not a printed value. Calls of active or inactive are those of the source. The calls are words filed in the database; no cut-off is given here.

What was measured:
[1] = target: Replicase polyprotein 1ab (Severe acute respiratory syndrome coronavirus 2) (UniProt P0DTD1); conditions: time 30.0 min
[2] = Plasma protein binding in human assessed as unbound fraction; assay type: ADME, cell-free
Cathepsin D = Cathepsin D (Homo sapiens, UniProt P07339); test: Inhibition of human Cathepsin D using fluorogenic substrate by FRET-based assay
Prothrombin = Prothrombin (Homo sapiens, UniProt P00734); test: Inhibition of human Thrombin using fluorogenic substrate by FRET-based assay
Vero C1008 = test: Cytotoxicity against african green monkey Vero E6 cells by CCK-8 assay; assay type: toxicity, cell-based; conditions: chlorocebus sabaeus
Caspase-2 = target: T1, Caspase-2 (Homo sapiens, UniProt P42575); test: Inhibition of human Caspase 2 using fluorogenic substrate by FRET-based assay
T1 sequence (P42575 whole entry): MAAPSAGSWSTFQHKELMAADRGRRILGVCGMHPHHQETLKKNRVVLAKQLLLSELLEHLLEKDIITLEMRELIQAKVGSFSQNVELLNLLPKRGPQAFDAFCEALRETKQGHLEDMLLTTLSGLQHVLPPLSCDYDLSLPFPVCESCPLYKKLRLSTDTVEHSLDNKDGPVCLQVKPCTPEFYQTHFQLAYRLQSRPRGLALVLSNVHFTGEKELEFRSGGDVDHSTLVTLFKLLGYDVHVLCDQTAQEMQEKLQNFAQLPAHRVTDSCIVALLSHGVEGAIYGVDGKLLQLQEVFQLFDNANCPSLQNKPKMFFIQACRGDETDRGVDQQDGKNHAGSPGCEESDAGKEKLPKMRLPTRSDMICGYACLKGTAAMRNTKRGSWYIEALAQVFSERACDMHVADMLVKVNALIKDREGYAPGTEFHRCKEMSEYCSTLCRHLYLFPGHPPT

Procathepsin L = Procathepsin L (Homo sapiens, UniProt P07711); test: Inhibition of human Cathepsin L using fluorogenic substrate by FRET-based assay
[3] = Metabolic stability in human liver microsomes assessed as intrinsic clearance; assay type: ADME, Microsome
[4] = Metabolic stability in human liver microsomes assessed as half life; assay type: ADME, Microsome
Cathepsin B = Cathepsin B (Homo sapiens, UniProt P07858); test: Inhibition of human Cathepsin B using fluorogenic substrate by FRET-based assay
[5] = Kinetic solubility in phosphate buffer solution at pH 7.4; assay type: physicochemical; conditions: read-out: Kinetic_solubility

Sequence of Procathepsin L (P07711 whole entry): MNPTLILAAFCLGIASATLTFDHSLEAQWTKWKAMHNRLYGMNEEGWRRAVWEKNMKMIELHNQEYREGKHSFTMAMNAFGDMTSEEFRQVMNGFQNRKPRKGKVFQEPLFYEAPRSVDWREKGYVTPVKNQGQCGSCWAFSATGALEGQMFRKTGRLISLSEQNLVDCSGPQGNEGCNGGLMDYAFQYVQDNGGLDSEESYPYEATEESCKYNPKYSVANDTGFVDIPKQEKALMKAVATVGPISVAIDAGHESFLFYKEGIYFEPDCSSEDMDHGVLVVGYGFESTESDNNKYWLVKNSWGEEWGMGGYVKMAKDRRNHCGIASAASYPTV
Sequence of Cathepsin D (P07339 65-162 limits assumed): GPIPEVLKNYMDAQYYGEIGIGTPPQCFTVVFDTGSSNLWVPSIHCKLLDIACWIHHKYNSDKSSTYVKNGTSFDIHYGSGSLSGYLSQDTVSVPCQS
Sequence of Cathepsin D (P07339 169-412 limits assumed): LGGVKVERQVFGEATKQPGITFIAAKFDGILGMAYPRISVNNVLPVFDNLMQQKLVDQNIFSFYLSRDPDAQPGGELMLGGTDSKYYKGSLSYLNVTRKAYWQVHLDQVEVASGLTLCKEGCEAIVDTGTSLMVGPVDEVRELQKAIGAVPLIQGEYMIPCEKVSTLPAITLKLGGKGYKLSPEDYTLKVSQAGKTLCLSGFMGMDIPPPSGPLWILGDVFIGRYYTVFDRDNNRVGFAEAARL

| SMILES | inhibition [1] | Fu [2] [%] | IC50 (Cathepsin D) [µM] | IC50 (Prothrombin) [µM] | CC50 (Vero C1008) [µM] | IC50 (Caspase-2) [µM] | IC50 (Procathepsin L) [µM] | CLH [3] [µL/min/mg] | t1/2 [4] [min] | IC50 (Cathepsin B) [µM] | solubility kinetic [5] [µM] |
| --- | --- | --- | --- | --- | --- | --- | --- | --- | --- | --- | --- |
| O=c1c2c(O)c(O)c(O)cc2nc(Cc2ccccc2)n1-c1ccccc1 | Active |  |  |  |  |  |  |  |  |  |  |
| O=c1c2c(O)c(O)c(O)cc2nc(-c2ccccc2)n1-c1ccccc1 | Active | 0.7 | > 10 | > 10 | > 50 | > 10 | > 10 | 108.68 | 12.75 | > 10 | 179 (≈ 62.1 µg/mL) |
| CC(C)Cc1nc2cc(O)c(O)c(O)c2c(=O)n1-c1ccccc1 | Active | 2.61 |  |  | > 50 |  |  | 68.34 | 20.28 |  | 156 (≈ 50.9 µg/mL) |
| O=c1c2c(O)c(O)c(O)cc2nc(-c2ccccc2)n1C1CCCC1 | Active |  |  |  |  |  |  |  |  |  |  |
| O=c1cc(-c2ccccc2)oc2cc(O)c(O)c(O)c12 [BAICALEIN] |  | 0.93 |  |  | > 50 |  |  | 333.05 | 4.16 |  | 112 (≈ 30.3 µg/mL) |
| Cc1cc(-n2c(CC(C)C)nc3cc(O)c(O)c(O)c3c2=O)ccc1F | Active | 3.17 |  |  | > 50 |  |  |  |  |  |  |
